Assay results published in ChEMBL document CHEMBL4308832, “Discovery of Allosteric, Potent, Subtype Selective, and Peripherally Restricted TrkA Kinase Inhibitors” (J Med Chem, 2018).

Key:
[1] = in vitro; details: dog, MDCK
[2] = physchem; details: buffer, pH 7.4
[3] = in vivo; details: rat, brain, iv, 0.5 mg/kg
[4] = in vivo; details: rat, iv, 0.5 mg/kg
[5] = in vivo; details: rat, po, 2 mg/kg
[6] = in vivo; details: rat, po, 2 mg/kg; remark: listed apart in the source
[7] = in vivo; details: rat, brain, iv, 1 mg/kg
[8] = in vivo; details: rat, iv, 1 mg/kg
[9] = in vivo; details: rat, po, 3 mg/kg
[10] = in vivo; details: rat, po, 3 mg/kg; remark: listed apart in the source

## CC(C)(O)CNC(=O)c1cc(NC(=O)c2cc(-c3ncccc3F)c(F)cc2Cl)n(-c2ccccc2)n1
[1]
  Papp A→B: 17 ×10⁻⁶ cm/s
[2]
  logD: 3.1

## NC(=O)c1cc(NC(=O)c2cc(-c3ccccn3)c(Cl)cc2Cl)n(-c2ccccc2)n1
[1]
  Papp A→B: 17 ×10⁻⁶ cm/s
[2]
  logD: 3

## NC(=O)c1cc(NC(=O)c2cc(-c3ccccn3)c(OC(F)F)cc2Cl)n(-c2ccccc2)n1
[1]
  Papp A→B: 13 ×10⁻⁶ cm/s
[2]
  logD: 2.7

## O=C(NCCO)c1cc(NC(=O)c2cc(-c3ccccn3)c(C(F)(F)F)cc2Cl)n(-c2ccccc2)n1
[1]
  Papp A→B: 8.5 ×10⁻⁶ cm/s
[2]
  logD: 3

## NC(=O)c1cccc(-c2ccc(Cl)c(C(=O)Nc3cc(C(N)=O)nn3-c3ccccc3)c2)n1
[1]
  Papp A→B: 6.1 ×10⁻⁶ cm/s
[2]
  logD: 2.3

## NC(=O)c1cc(NC(=O)c2cc(-c3nc(N)ccc3Cl)ccc2Cl)n(-c2ccccc2)n1
[1]
  Papp A→B: 11 ×10⁻⁶ cm/s
[2]
  logD: 3.2

## O=C(NCCO)c1cc(NC(=O)c2cc(-c3ccccn3)c(Cl)cc2Cl)n(-c2ccccc2)n1
[1]
  Papp A→B: 12 ×10⁻⁶ cm/s
[2]
  logD: 2.8

## NC(=O)c1cc(NC(=O)c2cc(-c3cccc(C(F)F)n3)ccc2Cl)n(-c2ccccc2)n1
[1]
  Papp A→B: 8.5 ×10⁻⁶ cm/s
[2]
  logD: 3.5

## CC(C)(O)CNC(=O)c1cc(NC(=O)c2cc(-c3ncccc3F)c(Cl)cc2Cl)n(-c2ccccc2)n1
[3]
  Kp uu at 4 h: 0.015
[4]
  Vd: 1.6 L/kg
[5]
  Tmax: 3 h
[6]
  bioavailability: 46%
[1]
  Papp A→B: 12 ×10⁻⁶ cm/s
[2]
  logD: 3.3

## NC(=O)c1cc(NC(=O)c2cc(-c3ccccn3)c(C3CC3)cc2Cl)n(-c2ccccc2)n1
[2]
  logD: 3.1

## NC(=O)c1cc(NC(=O)c2cc(-c3cccc(N)n3)c(Cl)cc2Cl)n(-c2ccccc2)n1
[1]
  Papp A→B: 11 ×10⁻⁶ cm/s
[2]
  logD: 2.9

## Cc1cc(NC(=O)c2ccc(Cl)cc2Cl)n(-c2ccccc2)n1
[1]
  Papp A→B: 30 ×10⁻⁶ cm/s
[2]
  logD: 3.3

## CC(=O)Nc1cccc(-c2ccc(Cl)c(C(=O)Nc3cc(C(N)=O)nn3-c3ccccc3)c2)n1
[1]
  Papp A→B: 10 ×10⁻⁶ cm/s
[2]
  logD: 2.7

## NC(=O)c1cc(NC(=O)c2cc(-c3ncccc3F)c(F)cc2Cl)n(-c2ccccc2)n1
[1]
  Papp A→B: 23 ×10⁻⁶ cm/s
[2]
  logD: 2.7

## COc1cc(Cl)c(C(=O)Nc2cc(C(N)=O)nn2-c2ccccc2)cc1-c1ccccn1
[1]
  Papp A→B: 13 ×10⁻⁶ cm/s
[2]
  logD: 2.4

## O=C(NCCO)c1cc(NC(=O)c2cc(-c3ncccc3F)c(Cl)cc2Cl)n(-c2ccccc2)n1
[1]
  Papp A→B: 13 ×10⁻⁶ cm/s
[2]
  logD: 2.8

## Cc1cc(Cl)c(C(=O)Nc2cc(C(N)=O)nn2-c2ccccc2)cc1-c1ccccn1
[1]
  Papp A→B: 12 ×10⁻⁶ cm/s
[2]
  logD: 2.6

## NC(=O)c1cc(NC(=O)c2cc(-c3ncccc3Cl)ccc2Cl)n(-c2ccccc2)n1
[7]
  Kp uu at 4 h: 0.076
[8]
  Vd: 1.1 L/kg
[9]
  Tmax: 0.9 h
[10]
  bioavailability: 85%
[1]
  Papp A→B: 14 ×10⁻⁶ cm/s
[2]
  logD: 2.8

## NCCNC(=O)c1cc(NC(=O)c2cc(-c3ccccn3)c(Cl)cc2Cl)n(-c2ccccc2)n1
[1]
  Papp A→B: 0.72 ×10⁻⁶ cm/s
[2]
  logD: 0.94

## O=C(NC1COC1)c1cc(NC(=O)c2cc(-c3ccccn3)c(Cl)cc2Cl)n(-c2ccccc2)n1
[1]
  Papp A→B: 11 ×10⁻⁶ cm/s
[2]
  logD: 3

## NC(=O)c1cc(NC(=O)c2cc(-c3ncccc3F)ccc2Cl)n(-c2ccccc2)n1
[7]
  Kp uu at 4 h: 0.1
[8]
  Vd: 0.46 L/kg
[9]
  Tmax: 4 h
[10]
  bioavailability: 100%
[1]
  Papp A→B: 19 ×10⁻⁶ cm/s
[2]
  logD: 2.6

## NC(=O)c1cc(NC(=O)c2cc(-c3ccccn3)c(F)cc2Cl)n(-c2ccccc2)n1
[1]
  Papp A→B: 10 ×10⁻⁶ cm/s
[2]
  logD: 2.7
